Results as given in patent US6130058A, “Human NMDA R2A receptor subunit and isoforms of the human NMDA-R1 receptor subunit and encoding cDNAs” (Merck Sharpe & Dohme Ltd., priority 1992, dated 2000).

Key:
[1] = target: recombinant R1a+R2A NMDA receptor expressed by population B cells (Homo sapiens, UniProt Q05586+Q12879); experiment: Whole cell patch clamp electrophysiology on population B cells; assay type: cell-based
Source text: The nature of the NMDA receptor expressed by population B cells has been extensively characterised by electrophysiological techniques, using whole cell patch clamp.

[2] = target: T1, recombinant R1a NMDA receptors (Homo sapiens, UniProt Q05586); experiment: [3H]-L-689,560 radioligand binding to membranes of R1a transfected Ltk- cells (population A); conditions: 1 nM radioligand, 100 μg protein, 2 hours on ice, dexamethasone-induced cells
T1 construct: expressed in transfected cells
Method: Ltk^- cells were obtained from the Salk Institute for Biological Studies, San Diego, Calif. Cells were grown at 37° C., 5-8% CO2, in Modified Eagles Medium containing penicillin, streptomycin and 10% fetal calf serum. […] For co-transfection, Ltk^- cells were plated in dishes (approx. 2×10^5 cells/dish) and grown overnight. The transfection was performed by calcium phosphate precipitation using a kit (purchased from 5 Prime→3 Prime Products, Westchester, Pa.). Co-transfection was performed according to manufacturers' instructions, using 5 μg of each subunit DNA construct per 10 cm dish of cells. After 2 days in culture the cells were divided 1:8 into culture medium containing 1 mg/ml neomycin [Geneticin (obtainable from Gibco BRL, Paisley, Scotland, United Kingdom)]. After a further week the concentration was increased to 1.5 mg/ml, and then 2 mg/ml 1 week after that. Resistant clones of cells were isolated and subcloned using cloning cylinders. Subclones were analysed using radioligand binding: subclones were grown in 10 cm culture dishes, and when confluent changed into culture medium containing 1 μM dexamethasone (obtainable from Sigma Chemical Company, Poole, Dorset, United Kingdom). […] Rev. Pharmacol. […] Non-specific binding was determined in a parallel incubation containing 10 mM glycine. […]

untransfected Ltk- cells = experiment: Radioligand binding to untransfected Ltk- cells (control); set-up: species or system mouse
Method: (§1) The nature of the recombinant R1a NMDA receptors prepared as described in Example 3 was addressed by characterization of the glycine site binding pharmacology, using the glycine site antagonist [^3 H]-L-689,560. For radioligand binding assays, cells which had been induced by culture in dexamethasone containing medium for 3-5 days were scraped off into 5 mM Tris-Acetate, pH 7.0 at 4° C. (buffer 1) and pelleted (20,000 rpm, Sorvall RC5C centrifuge). The cell pellet was resuspended in buffer 1, homogenised using an Ultra-Turrax homogeniser and then pelleted as above. This was repeated once more, and the cells then resuspended in 50 mM Tris-Acetate, pH 7.0 at 4° C. (buffer 2) at a protein concentration of 1 mg/ml. […] After 2 hours incubation on ice the membranes were harvested onto filters using a Brandel cell harvester, washed with cold buffer 2, and bound radioactivity determined by scintillation counting. Non-specific binding was determined in a parallel incubation containing 10 mM glycine. […]
(§2) For radioligand binding assays, cells which had been induced by culture in dexamethasone, MgCl2 and D-AP5 containing medium for 3-5 days were scraped off into 5 mM Tris-Acetate, pH 7.0 at 4° C. […] After 2 hours at 25° C. in the presence of 30 μM glycine and 30 μM L-glutamate the membranes were washed with buffer 1 and bound radioactivity determined by scintillation counting. […]

[3] = target: T2, recombinant R1a+R2A receptors (Homo sapiens, UniProt Q05586); experiment: [3H]-L-689,560 radioligand binding to membranes of R1a+R2A transfected Ltk- cells (population B)
T2 construct: expressed in transfected cells
Method: as §1, §2

[4] = target: recombinant R1a+R2A NMDA receptors (Homo sapiens, UniProt Q05586+Q12879); experiment: [3H]-dizocilpine radioligand binding to membranes of R1a+R2A transfected Ltk- cells (population B); conditions: 2 nM radioligand, 100 μg protein, 2 hours at 25° C., 30 μM glycine and 30 μM L-glutamate
Method: Ltk^- cells were obtained from the Salk Institute for Biological Studies, San Diego, Calif. Cells were grown at 37° C., 5-8% CO2, in Modified Eagles Medium containing penicillin, streptomycin and 10% fetal calf serum. […] For co-transfection, Ltk^- cells were plated in dishes (approx. 2×10^5 cells/dish) and grown overnight. The transfection was performed by calcium phosphate precipitation using a kit (purchased from 5 Prime→3 Prime Products, Westchester, Pa.). Co-transfection was performed according to manufacturers' instructions, using 5 μg of each subunit DNA construct per 10 cm dish of cells. After 2 days in culture the cells were divided 1:8 into culture medium containing 1 mg/ml neomycin [Geneticin (obtainable from Gibco BRL, Paisley, Scotland, United Kingdom)]. […] Subclones were analysed using radioligand binding: subclones were grown in 10 cm culture dishes, and when confluent changed into culture medium containing 1 μM dexamethasone (obtainable from Sigma Chemical Company, Poole, Dorset, United Kingdom). […]
For radioligand binding assays, cells which had been induced by culture in dexamethasone, MgCl2 and D-AP5 containing medium for 3-5 days were scraped off into 5 mM Tris-Acetate, pH 7.0 at 4° C. […] Non-specific binding was determined in a parallel incubation containing 100 μM dizocilpine.

O=C(O)[C@H]1C[C@@H](CP(=O)(O)O)CCN1 (relative stereo) [CGS 19,755]
antagonism of the response to glutamate and glycine [1]: antagonised

O=C(Nc1ccccc1)N[C@@H]1C[C@@H](C(=O)O)Nc2cc(Cl)cc(Cl)c21 (relative stereo) [[^3 H]-L-689,560]
level of [3H]-L-689,560 bound [2]: up to 3700 fmols/mg protein
binding to untransfected Ltk- cells (untransfected Ltk- cells; [3H]-L-689,560 binding conditions, 1 nM): No binding
level of [3H]-L-689,560 bound [3]: up to 500 fmols/mg protein

C[C@]12N[C@H](Cc3ccccc31)c1ccccc12 [[^3 H]-dizocilpine, dizocilpine]
level of [3H]-dizocilpine bound [4]: up to 200 fmols/mg protein
binding to untransfected Ltk- cells (untransfected Ltk- cells; [3H]-dizocilpine binding conditions, 2 nM): No binding
